According to US20240041764A1, “Sustained-Release Oral Fosamprenavir Formulation for Treatment of Reflux” (The Medical College of Wisconsin, Inc., priority 2022, published 2024):
Entries after “also recorded” stand apart in the source; their conditions may differ. Square brackets hold non-standard residues; d marks the D form. Peptide text beside a SMILES is read from it. * marks the point of attachment. Sta = CC(C)C[C@H](N)[C@@H](O)CC(=O)O; Isovaleryl = CC(C)CC(=O)*

Tests used:
porcine pepsin A = target: T1, porcine pepsin A (Sus scrofa, UniProt P00791); experiment: competitive binding assay, fluorescence polarization with pepstatin-Alexa647; settings: 100 nM probe, 0.03 U/ul porcine pepsin A, 37.5% DMSO, 0.1 M HCl pH 1
T1 construct: purchased Worthington Biochemical Corporation
Protocol: To examine whether HIV protease inhibitors bound and inhibited pepsin, we developed assays based on fluorescence polarization which measures size-dependent molecular rotation thereby permitting detection of degradation, association and dissociation events^80. A competitive binding assay was designed employing pepstatin, an inhibitor of sub-nanomolar affinity^81. Pepstatin-Alexa647 was synthesized by dissolving 1 mg pepstatin A (Sigma-Aldrich) in a 50:50 mixture of dimethylformamide (DMF) and dimethylsulfoxide (DMS) followed by the addition of N,N,N′,N′-Tetramethyl-O—(N-succinimidyl)uronium tetrafluoroborate (0.6 mg) and trimethylamine (10 μL) DMF. The mixture was stirred for 1 hour, after which 1 mg Alexa Fluor 647 Cadaverine, Disodium Salt (ThermoFisher Scientific) was added. After 2 hours, the solvents were evaporated under high vacuum (35° C.) and residue partially dissolved in 10% methanol and transferred onto a C18 cartridge (Waters Corporation, Milford, MA). Increasing percentages of methanol were used for the elution. Pepstatin-Alexa647 eluted at 45% methanol. An enzymatic inhibition assay was designed using casein substrate.^82 Bovine alpha casein (Sigma-Aldrich, St. Louis, MO) was labeled with Alexa Fluor 647 Carboxylic Acid, Succinimidyl Ester (ThermoFisher Scientific, Waltham, MA) as described.^82 Briefly, the two were combined at 2.5 ug/mg label to protein ratio in 0.1M sodium bicarbonate for 15 minutes and labeled casein was separated from unbound label in a Sephadex G-25 (Sigma-Aldrich) column comprised of 90×5 mm packed beads in a glass Pasteur pipette, eluted with dPBS pH7.4 (ThermoFisher Scientific). The fast-moving band (casein-bound fluorophore) was collected in ˜0.4 ml volume. […]
(§1) Assays were optimized using ranges of 0.3-1000 μM unlabeled pepstatin, 100-500 nM pepstatin-Alexa647 or casein-Alexa647 probe, 0.003-3 U/μl porcine pepsin (Worthington Biochemical Corporation, Lakewood, NJ), and 5-37.5% DMSO (HIV protease inhibitor diluent) in 0.1 M HCl, pH 1 with 0.01% v/v Tween-20 in 20 μl volumes in 384-well black optical plates (Nunc, Roskilde, DK) and read on a BioTek Cytation 5 (BioTek Instruments, Winooski, VT) with far red FP filter cube (excitation/emission 620/680 nm). […] Assays were performed twice with triplicate reactions read for five minutes and mean mP plotted against probe concentration (binding assay) or read at <2 minutes intervals over 30 minutes with mean mP of plotted over time (activity assay). Half maximal inhibitory concentration (IC50) of inhibitors were calculated from kinetic traces analyzed using an online tool (https://icekat.herokuapp.com/icekat)^83. mP was normalized to blank (absent inhibitor) to derive percent bound or activity.

porcine pepsin = target: T2, porcine pepsin (Sus scrofa, UniProt P00791); experiment: peptic activity assay, fluorescence polarization with casein-Alexa647; format: biochemical; settings: for inhibited pepsin (peptic activity): 200 nM probe, 0.01 U/μL pepsin, 5% DMSO, 0.1 M HCl pH 1
T2 construct: purchased Worthington Biochemical Corporation
Protocol: To examine whether HIV protease inhibitors bound and inhibited pepsin, we developed assays based on fluorescence polarization which measures size-dependent molecular rotation thereby permitting detection of degradation, association and dissociation events^80. A competitive binding assay was designed employing pepstatin, an inhibitor of sub-nanomolar affinity^81. Pepstatin-Alexa647 was synthesized by dissolving 1 mg pepstatin A (Sigma-Aldrich) in a 50:50 mixture of dimethylformamide (DMF) and dimethylsulfoxide (DMS) followed by the addition of N,N,N′,N′-Tetramethyl-O—(N-succinimidyl)uronium tetrafluoroborate (0.6 mg) and trimethylamine (10 μL) DMF. The mixture was stirred for 1 hour, after which 1 mg Alexa Fluor 647 Cadaverine, Disodium Salt (ThermoFisher Scientific) was added. After 2 hours, the solvents were evaporated under high vacuum (35° C.) and residue partially dissolved in 10% methanol and transferred onto a C18 cartridge (Waters Corporation, Milford, MA). Increasing percentages of methanol were used for the elution. […] An enzymatic inhibition assay was designed using casein substrate.^82 Bovine alpha casein (Sigma-Aldrich, St. Louis, MO) was labeled with Alexa Fluor 647 Carboxylic Acid, Succinimidyl Ester (ThermoFisher Scientific, Waltham, MA) as described.^82 Briefly, the two were combined at 2.5 ug/mg label to protein ratio in 0.1M sodium bicarbonate for 15 minutes and labeled casein was separated from unbound label in a Sephadex G-25 (Sigma-Aldrich) column comprised of 90×5 mm packed beads in a glass Pasteur pipette, eluted with dPBS pH7.4 (ThermoFisher Scientific). The fast-moving band (casein-bound fluorophore) was collected in ˜0.4 ml volume. Concentration of resultant probe (casein-Alexa647 in PBS-azide) was estimated via spectrophotometry using Beer's law (Implen Nanophotometer, Implen, Inc. Westlake Village, CA).
as §1, with “nm). Unlabeled pepstatin dose-response curves were used to ensure that the assays were responsive to pepsin inhibition.” for “nm).”

[1] = in vivo; cited from earlier work
pepsin [2] = settings: cited from earlier work
[3] = tested on: patients with HEMII-pH testing-confirmed alkaline LPR; settings: thrice daily post meal with anti-reflux diet; n=48; cited from earlier work
[4] = cited from earlier work
pepsin [5] = settings: cited from earlier work; remark: listed apart in the source

T2 sequence (P00791 60-385): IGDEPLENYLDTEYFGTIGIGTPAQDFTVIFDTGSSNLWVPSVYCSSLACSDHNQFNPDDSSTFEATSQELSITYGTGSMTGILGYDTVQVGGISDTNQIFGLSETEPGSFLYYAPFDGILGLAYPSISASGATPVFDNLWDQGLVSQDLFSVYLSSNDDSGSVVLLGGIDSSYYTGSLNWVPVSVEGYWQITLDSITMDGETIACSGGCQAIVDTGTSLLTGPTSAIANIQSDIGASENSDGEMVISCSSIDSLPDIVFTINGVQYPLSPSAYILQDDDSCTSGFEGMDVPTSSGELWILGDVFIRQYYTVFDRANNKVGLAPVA
T1 sequence (P00791 60-385): as above

Compound: CC(C)CN(C[C@@H](O)[C@H](Cc1ccccc1)NC(=O)O[C@H]1CCOC1)S(=O)(=O)c1ccc(N)cc1 [amprenavir, [(3S)-oxolan-3-yl] N-[(2S,3R)-4-[(4-aminophenyl)sulfonyl-(2-methylpropyl)amino]-3-hydroxy-1-phenylbutan-2-yl]carbamate]
- bound pepsin (competitive binding) (porcine pepsin A): low micromolar
- inhibited pepsin (peptic activity) (porcine pepsin): low micromolar
- IC50 for pepsin (porcine pepsin; in vitro binding and inhibition assays, IC50 from kinetic traces): low micromolar range
- side effects [1]: minimal side effects (diarrhea, nausea and vomiting)

Compound: CC(C)c1cc2c(cc1S(=O)(=O)O)[C@@]1(C)CCC[C@@](C)(C(=O)O)[C@@H]1CC2 [ecabet sodium]
- effect on pepsin-mediated damage and inflammation (pepsin [2]): abrogate this damage and inflammation

Compound: O.O=S(=O)([O-])[O-].O=S(=O)([O-])[O-].[Al+3].[Al+3].[Al+3].[Al+3].[Al+3].[Mg+2].[Mg+2].[Mg+2].[Mg+2].[Mg+2].[Mg+2].[Mg+2].[Mg+2].[Mg+2].[Mg+2].[OH-].[OH-].[OH-].[OH-].[OH-].[OH-].[OH-].[OH-].[OH-].[OH-].[OH-].[OH-].[OH-].[OH-].[OH-].[OH-].[OH-].[OH-].[OH-].[OH-].[OH-].[OH-].[OH-].[OH-].[OH-].[OH-].[OH-].[OH-].[OH-].[OH-].[OH-] [magaldrate]
- voice quality (GRBAS dysphonia and roughness, jitter, shimmer, noise to harmonic ratio) [3]: improved voice quality

Compound: CC(C)CC(=O)N[C@H](C(=O)N[C@H](C(=O)N[C@@H](CC(C)C)[C@@H](O)CC(=O)N[C@@H](C)C(=O)N[C@@H](CC(C)C)[C@@H](O)CC(=O)O)C(C)C)C(C)C [pepstatin] (Isovaleryl-VV[Sta]A[Sta]-OH)
- water solubility [4]: poor water-solubility; also recorded: poor water-soluble characteristics
- effect on pepsin-mediated damage and inflammation (pepsin [2]): abrogate this damage and inflammation
- affinity / potency as pepsin inhibitor (pepsin [5]): potent pepsin inhibitor; also recorded: sub-nanomolar

Compound: CC(C)c1nc(CN(C)C(=O)N[C@H](C(=O)N[C@@H](Cc2ccccc2)C[C@H](O)[C@H](Cc2ccccc2)NC(=O)OCc2cncs2)C(C)C)cs1 [ritonavir, 1,3-thiazol-5-ylmethyl N-[(2S,3S,5S)-3-hydroxy-5-[[(2S)-3-methyl-2-[[methyl-[(2-propan-2-yl-1,3-thiazol-4-yl)methyl]carbamoyl]amino]butanoyl]amino]-1,6-diphenylhexan-2-yl]carbamate]
- bound pepsin (competitive binding) (porcine pepsin A): low micromolar
- inhibited pepsin (peptic activity) (porcine pepsin): low micromolar
- side effects [1]: minimal side effects (diarrhea, nausea and vomiting)

Compound: anthocyanin
- effect on pepsin-mediated damage and inflammation (pepsin [2]): abrogate this damage and inflammation
